Reference: patent publication US20230382904A1, “SUBSTITUTED 4-([1,2,4]TRIAZOLO[1,5-a]PYRIDIN-6-YL)THIOPHENE-2-CARBOXAMIDE DERIVATIVES AND USE THEREOF” (The Johns Hopkins University, priority 2020, published 2023)

Key:
LZK = LZK (Homo sapiens (Human), UniProt O43283); test: LZK biochemical assay (TR-FRET, MKK7 phosphorylation)
Method in brief: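 Catalytic-domain LZK (10 nM) phosphorylated His-MKK7 (15 nM) with 15 μM ATP for 90 min at RT. Phospho-T275/S277 detected by Eu-anti-phospho-MKK7/XL665-anti-His TR-FRET after 16 h at 32° C, using the 665/Eu ratio. Buffer: 50 mM Hepes pH 7.5, 10 mM MgCl2, 1 mM DTT.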

DLK = DLK (Homo sapiens (Human), UniProt Q12852); test: DLK biochemical assay (TR-FRET, MKK7 phosphorylation)
Chain of DLK (Q12852 1-520): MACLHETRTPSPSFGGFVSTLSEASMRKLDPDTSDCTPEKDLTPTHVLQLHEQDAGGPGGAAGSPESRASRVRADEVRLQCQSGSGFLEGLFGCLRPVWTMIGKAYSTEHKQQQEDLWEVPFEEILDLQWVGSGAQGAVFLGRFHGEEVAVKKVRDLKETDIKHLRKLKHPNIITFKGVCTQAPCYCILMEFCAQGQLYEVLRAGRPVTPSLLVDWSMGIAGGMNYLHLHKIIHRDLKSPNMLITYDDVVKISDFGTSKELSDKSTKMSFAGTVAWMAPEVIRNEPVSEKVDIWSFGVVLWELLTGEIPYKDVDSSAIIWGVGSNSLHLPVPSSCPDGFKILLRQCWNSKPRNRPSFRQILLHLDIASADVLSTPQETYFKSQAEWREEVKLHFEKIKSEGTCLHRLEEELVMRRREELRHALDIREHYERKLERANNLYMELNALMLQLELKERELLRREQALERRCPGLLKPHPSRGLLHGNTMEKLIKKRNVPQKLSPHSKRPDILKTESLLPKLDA
Method in brief: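 Catalytic-domain DLK (10 nM) phosphorylates His-MKK7 (15 nM) with 60 μM ATP, 90 min at RT, in pH 7.5 HEPES buffer. Phospho-T275/S277 read by TR-FRET (Eu anti-phospho donor, XL665 anti-His acceptor) after 16 h detection, at 37° C. in 1536 or 4° C. in 384 format.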

Chain of LZK (O43283 168-409): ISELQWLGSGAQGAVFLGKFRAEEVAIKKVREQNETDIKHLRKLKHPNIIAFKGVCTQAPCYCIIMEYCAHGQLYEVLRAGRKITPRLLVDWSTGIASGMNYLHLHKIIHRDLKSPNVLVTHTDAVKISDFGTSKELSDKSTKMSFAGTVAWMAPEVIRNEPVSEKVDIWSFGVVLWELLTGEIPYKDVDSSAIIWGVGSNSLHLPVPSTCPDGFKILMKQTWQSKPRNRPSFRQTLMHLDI

Row | Compound | IC50 (LZK) | IC50 (DLK)
1 | COc1cncc(CNC(=O)c2cc(-c3ccc4nc(N)nn4c3)cs2)c1 [Compound 235] | 23000 nM | 370 nM
2 | CC[C@H](C)NC(=O)c1cc(-c2csc(C(=O)NCc3ccc(F)cc3)c2)cc2nc(N)nn12 [Compound 161] | 43 nM | 21 nM
3 | CC[C@H](C)NC(=O)c1cc(-c2csc(C(=O)N[C@@H](COC)c3ccc(F)cc3)c2)cn2nc(N)nc12 [Compound 138] | 31 nM | 4.2 nM
4 | Cc1sc(C(=O)NCc2ccc(F)cc2)cc1-c1ccc2nc(N)nn2c1 [Compound 305] | > 30000 nM | > 30000 nM
5 | COC[C@H](C)NC(=O)c1cc(-c2csc(C(=O)NCc3ccc(F)cc3)c2)cn2nc(N)nc12 [Compound 68] | 1600 nM | 300 nM
6 | Nc1nc2c(C(F)(F)F)cc(-c3csc(C(=O)NCc4ccc(F)cc4)c3)cn2n1 [Compound 375] | 3300 nM | 840 nM

Now from value to molecule:

Row | IC50 (LZK) | IC50 (DLK) | Compound
7 | 61 nM | 4.61 nM | C[C@H](NC(=O)c1cc(-c2cc(C(=O)N[C@@H](C)CO)c3nc(N)nn3c2)cs1)c1ccccc1 [Compound 25]
8 | 1800 nM | 130 nM | CC(NC(=O)c1cc(-c2ccc3nc(N)nn3c2)cs1)c1ccc(F)cc1 (centres unmarked) [Compound 303]
9 | 1200 nM | 210 nM | COCc1cc(-c2csc(C(=O)N[C@@H](C)c3ccc(F)cc3)c2)cn2nc(N)nc12 [Compound 388]
10 | 220 nM | 18 nM | COc1cccc(C(C)(C)NC(=O)c2cc(-c3cc(C(=O)NC(C)C)c4nc(N)nn4c3)cs2)c1 [Compound 125]
11 | > 30000 nM | 505 nM | COc1cccc([C@@H](C)NC(=O)c2cc(-c3ccc4nc(N)nn4c3)cs2)c1 [Compound 264]
12 | 2500 nM | 130 nM | Nc1nc2ccc(-c3csc(C(=O)NC4COc5ccc(F)cc54)c3)cn2n1 (centres unmarked) [Compound 306]
13 | 100 nM | 36 nM | CC(C)NC(=O)c1cc(-c2csc(C(=O)NCc3nc4ccccc4o3)c2)cc2nc(N)nn12 [Compound 151]
